Series [1] is described as follows: Genotoxicity in Escherichia coli PQ37 expressing lacZ gene assessed as ratio of inducible beta-galactosidase activity to alkaline phosphatase activity at 30 mM after 2 hrs by SOS-chromotest relative to control. Format: toxicity. The settings on record: Escherichia coli PQ37 cells expressing lacZ gene, read-out: FC.
A further series relates to Salmonella typhimurium. The experiment in a line: Genotoxicity in Salmonella typhimurium TA102 harboring […] mutant assessed as frequency of reversion from histidine auxotrophy to prototrophy at 30 mM after 48 hrs by Ames test (reference value: 209 +/- 10 No _unit). Format: toxicity, organism-based. The settings on record: salmonella enterica subsp. enterica serovar typhimurium, 30000 µM.

Series [2] relates to Salmonella enterica subsp. enterica serovar Typhimurium. Description: Antioxidant activity in Salmonella typhimurium TA102 harboring […] mutant assessed as inhibition of t-BuO2H-dependant mutant formation at 0.3 uM preincubated with compound followed by t-BuO2H addition after 48 hrs by Ames test. It counts as functional.
Series [3] has the same test system. The experiment in a line: Antioxidant activity in Salmonella typhimurium TA102 harboring […] mutant assessed as inhibition of t-BuO2H-dependant mutant formation at 3 uM preincubated with compound followed by t-BuO2H addition after 48 hrs by Ames test. It counts as functional.
For series [4] the test system is unchanged. The experiment in a line: Antioxidant activity in Salmonella typhimurium TA102 harboring […] mutant assessed as inhibition of t-BuO2H-dependant mutant formation at 30 uM preincubated with compound followed by t-BuO2H addition after 48 hrs by Ames test. Format: functional.
Series [5] can be described thus: Cytotoxicity against human MCF7 cells assessed as reduction in cell viability after 72 hrs by MTT assay. Format: functional, cell-based. To be noted: MCF7, 72 h.
Series [6] in a line: Cytotoxicity against human RPMI8226 cells assessed as reduction in cell viability after 72 hrs by MTT assay. It counts as functional, cell-based. To be noted: RPMI-8226, 72 h.
A short description of series [7]: Cytotoxicity against human HepG2 cells assessed as reduction in cell viability after 72 hrs by MTT assay. It counts as functional, cell-based. The settings on record: HepG2, 72 h.
Series [8] is described as follows: Cytotoxicity against human CEM13 cells assessed as reduction in cell viability after 72 hrs by MTT assay. To be noted: CEM13, 72 h. Format: functional, cell-based.
Series [9] is described as follows: Cytotoxicity against human U937 cells assessed as reduction in cell viability after 72 hrs by MTT assay. It counts as functional, cell-based. To be noted: U-937, 72 h.
A short description of series [10]: Cytotoxicity against human MT4 cells assessed as reduction in cell viability after 72 hrs by MTT assay. It counts as functional, cell-based. To be noted: MT4, 72 h.
Series [11] in a line: Cytotoxicity against mouse LMTK cells assessed as reduction in cell viability after 72 hrs by MTT assay. Format: toxicity.
Series [12] can be described thus: Cytotoxicity against hamster AG17-1 cells assessed as reduction in cell viability after 72 hrs by MTT assay. Format: toxicity, cell-based, Cricetulus griseus. The settings on record: Chinese hamster.
The nature of series [13]: Cytotoxicity against human CEM13 cells assessed as reduction in cell viability at 300 uM after 72 hrs by MTT assay. Format: functional. The settings on record: CEM13, 72 h.
The nature of series [14]: Ratio of IC50 for human MCF7 cells to concentration causing antioxidant activity in Salmonella typhimurium TA102 harboring […] mutant. Format: functional.
Series [15] in a line: Ratio of IC50 for human RPMI8226 cells to concentration causing antioxidant activity in Salmonella typhimurium TA102 harboring […] mutant. It counts as functional, RPMI-8226.
Series [16] is described as follows: Ratio of IC50 for human HEPG2 cells to concentration causing antioxidant activity in Salmonella typhimurium TA102 harboring […] mutant. It counts as functional.
A short description of series [17]: Ratio of IC50 for human CEM13 cells to concentration causing antioxidant activity in Salmonella typhimurium TA102 harboring […] mutant. Format: functional.
Series [18] can be described thus: Ratio of IC50 for human MT4 cells to concentration causing antioxidant activity in Salmonella typhimurium TA102 harboring […] mutant. Format: functional.
Series [19] can be described thus: Ratio of IC50 for human U937 cells to concentration causing antioxidant activity in Salmonella typhimurium TA102 harboring […] mutant. It counts as functional, U-937.
Series [20] can be described thus: Cytotoxicity against human HepG2 cells assessed as reduction in cell viability at 300 uM after 72 hrs by MTT assay. It counts as functional. To be noted: HepG2, 72 h.
Series [21] is described as follows: Cytotoxicity against mouse LMTK cells assessed as reduction in cell viability at 300 uM after 72 hrs by MTT assay. To be noted: read-out: INH. Format: toxicity.
Series [22] can be described thus: Cytotoxicity against hamster AG17-1 cells assessed as reduction in cell viability at 300 uM after 72 hrs by MTT assay. Format: toxicity, cell-based, Cricetulus griseus. The settings on record: Chinese hamster, read-out: INH.
A short description of series [23]: Cytotoxicity against human MCF7 cells assessed as reduction in cell viability at 300 uM after 72 hrs by MTT assay. Format: functional. To be noted: MCF7, 72 h.

Regarding `Cc1c(C)c2c(c(C)c1O)CCC(C)(C(=O)NC1CC(C)(C)N([O])C(C)(C)C1)O2` (centres undefined), in series [1], the fold induction at 2 h, 30000 µM was determined as 1.4. Further, the Activity in the series on Salmonella typhimurium is on record as 218. The values for the inhibition in series [2], in series [3] and in [4] were 11%, 21.5% and 4.1%, respectively. For the same compound, the IC50 was 58 µM in [5]; 39 µM in series [6]; 54 µM in [7]; > 300 µM in series [8]; 161 µM in [9]; 55 µM in series [10]. For the same compound, the IC50 at 72 h in series [11] turned out to be 252 µM; in series [12], 186 µM. Moreover, in [13], the inhibition at 300 µM is 32%. For the same compound, the Ratio in series [14], in series [15], in series [16], in series [17], in series [18] and in [19] was 100 - 1000 throughout.
For `Cc1c(C)c2c(c(C)c1OC(=O)CCC(=O)NCC1CC(C)(C)N([O])C1(C)C)CC[C@@](C)(CCC[C@H](C)CCC[C@H](C)CCCC(C)C)O2` (some centres undefined), the fold induction at 2 h, 30000 µM in series [1] was determined as 1. Besides, the Activity in the series with Salmonella typhimurium is 215. Besides, the inhibition in series [2] was found to be 1%; in [3] it was 4%; in [4], 24%. Also, the IC50 in series [5] is 260 µM; in series [6], 217 µM; in series [7], > 300 µM; in series [8], 105 µM; in [9] it was 137 µM; in series [10], 92 µM. The IC50 at 72 h in series [11] and in series [12] was > 300 µM throughout. For the same compound, the inhibition at 300 µM in series [20] was determined as 10%. The cytotoxicity at 72 h, 300 µM in series [21] is 7%; in series [22], 32%. The Ratio in series [14], in [15], in [16], in series [17], in [18] and in series [19] was 100 - 1000 each time.
For the compound `Cc1c(C)c2c(c(C)c1O)CCC(C)(C(=O)NCC1CC(C)(C)N([O])C1(C)C)O2` (centres undefined), in [1], the fold induction at 2 h, 30000 µM is 1. Besides, the Activity in the series on Salmonella typhimurium is on record as 225. For the same compound, the inhibition in series [2] turned out to be 26%; in series [3], 21.5%; in [4], 17.7%. Besides, the IC50 in [5] was > 300 µM; in series [6] it was 70 µM; in series [7], > 300 µM; in series [8], > 300 µM; in series [9], 134 µM; in series [10], 231 µM. In addition, the IC50 at 72 h came to 300 µM in [11] and 192 µM in series [12]. Further, the inhibition at 300 µM in series [23] was found to be 34%; in series [20], 38%; in series [13] it was 32%. In addition, the cytotoxicity at 72 h, 300 µM in series [21] is 25%. Further, the Ratio in series [14], in series [15], in [16], in [17], in series [18] and in [19] was 100 - 1000 in each case.
On to `Cc1c(C)c2c(c(C)c1O)CCC(C)(C(=O)NC1CC(C)(C)N([O])C1(C)C)O2` (centres undefined), for which the fold induction at 2 h, 30000 µM in series [1] came out at 1.2. Besides, the Activity in the series with Salmonella typhimurium is listed as 221. Moreover, the values for the inhibition in [2], in [3] and in series [4] were 55.2%, 57.6% and 62%, respectively. In addition, the IC50 in [5] was 58 µM; in [6], 58 µM; in series [7], 145 µM; in [8] it was > 300 µM; in [9], 98 µM; in [10] it was 144 µM. Besides, the IC50 at 72 h in series [11] is > 300 µM; in series [12], 194 µM. The inhibition at 300 µM in series [13] is 45%. For the same compound, the cytotoxicity at 72 h, 300 µM in [21] turned out to be 32%. The Ratio in [14], in series [15], in series [16], in series [17], in series [18] and in series [19] was 100 - 1000 each time.
For `Cc1c(C)c2c(c(C)c1OC(=O)CCC(=O)NCC1CC(C)(C)N([O])C1(C)C)CCC(C)(C(=O)NCC1CC(C)(C)N([O])C1(C)C)O2` (centres undefined), the fold induction at 2 h, 30000 µM in [1] is 1.2. Also, in the series on Salmonella typhimurium, the Activity came to 209. Besides, the inhibition in [2] was 13%; in [3], 23%; in series [4], 20%. Further, the IC50 is > 300 µM in series [5]; 70 µM in [6]; 176 µM in series [7]; 107 µM in [8]; 61 µM in [9]; 114 µM in series [10]. The IC50 at 72 h in series [11] was > 300 µM; in series [12], 50 µM. The inhibition at 300 µM in series [23] turned out to be 32%. Also, in series [21], the cytotoxicity at 72 h, 300 µM is 10%. The Ratio in series [14], in series [15], in series [16], in [17], in series [18] and in series [19] was 100 - 1000 throughout.
Turning to `Cc1c(C)c2c(c(C)c1OC(=O)CCC(=O)O)CC[C@@](C)(CCC[C@H](C)CCC[C@H](C)CCCC(C)C)O2` [(+)-ALPHA-TOCOPHERYL SUCCINATE], the fold induction at 2 h, 30000 µM in [1] was 1.1. Also, the Activity in the series on Salmonella typhimurium is 216. The results for the inhibition in series [2], in series [3] and in series [4] were 56%, 63.2% and 63.6%, respectively. Moreover, the IC50 in series [5] was 57 µM; in series [6], 63 µM; in series [7], 245 µM; in series [8], > 300 µM; in series [9], 113 µM; in series [10], 66 µM. Further, the IC50 at 72 h in series [11] turned out to be 73 µM; in [12], 50 µM. Also, in series [13], the inhibition at 300 µM came out at 40%.
Turning to `Cc1c(C)c2c(c(C)c1OC(=O)CCC(=O)NC1CC(C)(C)N([O])C(C)(C)C1)CCC(C)(C(=O)NC1CC(C)(C)N([O])C(C)(C)C1)O2` (centres undefined), the fold induction at 2 h, 30000 µM in series [1] was 1. In addition, the Activity in the series with Salmonella typhimurium is listed as 203. The inhibition in series [2] is 7%; in series [3], 25%; in series [4], 25%. For the same compound, the 50% inhibitory concentration (IC50) is 62 µM in series [5]; 68 µM in [6]; 42 µM in [7]; > 300 µM in series [8]; 72 µM in series [9]; 41 µM in [10]. Also, the IC50 at 72 h in series [11] amounted to 133 µM; in series [12], 54 µM. Also, the inhibition at 300 µM in [13] worked out at 33%. Also, the Ratio in series [14], in series [15], in [16], in [17], in [18] and in series [19] was 100 - 1000 in each case.
With `Cc1c(C)c2c(c(C)c1OC(=O)CCC(=O)NC1CC(C)(C)N([O])C1(C)C)CC[C@@](C)(CCC[C@H](C)CCC[C@H](C)CCCC(C)C)O2` (some centres undefined), the fold induction at 2 h, 30000 µM in series [1] is 0.8. Also, the Activity with Salmonella typhimurium was determined as 227. Further, the results for the inhibition in [2], in series [3] and in series [4] were 21%, 29% and 12%, respectively. Besides, the IC50 in series [5] was 95 µM; in [6], 55 µM; in [7], > 300 µM; in [8], > 300 µM; in [9], 69 µM; in series [10], 87 µM. In addition, the IC50 at 72 h in series [11] and in series [12] was > 300 µM each time. The inhibition at 300 µM in [20] came out at 38%; in [13] it was 34%. In addition, the results for the cytotoxicity at 72 h, 300 µM in series [21] and in series [22] were 30% and 38%, respectively. Further, the Ratio in series [14], in series [15], in series [16], in [17], in series [18] and in series [19] was 100 - 1000 each time.
